Laboratory results: ChEMBL document CHEMBL1201862, “PubChem BioAssay data set” (2004)
Active and inactive are the calls of the source.

Experiments:
[1] = target: T1, Apoptotic protease-activating factor 1 (Homo sapiens, UniProt O14727); experiment: SAR analysis of small molecule Activators of Apaf-1 in a Fluorescent assay - set 2.; type: functional; settings: read-out: EC50_Mean
T1 sequence (O14727 whole entry): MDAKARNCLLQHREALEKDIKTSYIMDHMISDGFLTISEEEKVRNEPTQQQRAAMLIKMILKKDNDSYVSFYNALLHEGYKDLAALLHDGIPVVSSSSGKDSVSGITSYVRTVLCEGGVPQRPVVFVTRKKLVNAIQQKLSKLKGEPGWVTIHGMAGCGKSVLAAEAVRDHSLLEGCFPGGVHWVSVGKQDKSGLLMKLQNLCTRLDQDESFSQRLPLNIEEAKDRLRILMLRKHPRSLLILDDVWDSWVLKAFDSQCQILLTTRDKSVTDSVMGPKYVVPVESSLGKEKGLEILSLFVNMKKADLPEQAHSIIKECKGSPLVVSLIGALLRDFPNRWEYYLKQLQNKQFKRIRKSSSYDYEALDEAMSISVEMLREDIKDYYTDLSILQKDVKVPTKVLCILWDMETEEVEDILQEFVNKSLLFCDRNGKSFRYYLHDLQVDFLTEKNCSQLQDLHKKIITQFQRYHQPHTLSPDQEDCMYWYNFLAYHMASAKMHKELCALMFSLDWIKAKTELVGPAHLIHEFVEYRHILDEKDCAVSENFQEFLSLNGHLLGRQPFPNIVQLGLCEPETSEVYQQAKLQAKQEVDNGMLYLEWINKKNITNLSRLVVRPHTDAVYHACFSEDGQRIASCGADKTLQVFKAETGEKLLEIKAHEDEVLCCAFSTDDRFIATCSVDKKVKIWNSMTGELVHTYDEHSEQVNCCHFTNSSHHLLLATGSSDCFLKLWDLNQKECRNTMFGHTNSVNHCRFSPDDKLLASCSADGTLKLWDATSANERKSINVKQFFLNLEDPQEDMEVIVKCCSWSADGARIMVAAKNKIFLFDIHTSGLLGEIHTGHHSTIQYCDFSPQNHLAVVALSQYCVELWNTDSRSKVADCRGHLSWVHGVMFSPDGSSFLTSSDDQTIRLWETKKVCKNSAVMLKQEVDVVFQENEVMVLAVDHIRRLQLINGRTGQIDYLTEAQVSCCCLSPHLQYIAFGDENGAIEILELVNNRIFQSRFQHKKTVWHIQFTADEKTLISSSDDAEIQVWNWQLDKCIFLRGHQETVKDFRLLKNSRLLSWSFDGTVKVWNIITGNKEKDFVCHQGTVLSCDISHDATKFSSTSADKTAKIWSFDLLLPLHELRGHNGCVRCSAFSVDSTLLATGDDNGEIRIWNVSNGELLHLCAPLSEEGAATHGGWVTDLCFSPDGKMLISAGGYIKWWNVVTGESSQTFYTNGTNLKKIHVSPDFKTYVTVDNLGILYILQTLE

[2] = SAR analysis of small molecule activators of Apaf-1 using a LZ-Caspase-9/Caspase-3 Fluorescent Selectivity assay - Set 2.; type: functional; settings: read-out: EC50_Mean

- EC50 [1]: > 100 µM (inactive)
- EC50 [2]: > 100 µM (inactive)
Structure (SMILES): CC(Cn1cccn1)C(=O)O (configuration not stated)
